From PubChem BioAssay (NCI)
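Five compound concentrations were applied to cells in 96-well plates for 48 hours; endpoints were derived by simple linear interpolation of the resulting dose-response curve. GI50 = concentration required for 50% inhibition of growth. TGI marks complete inhibition of growth.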

Tests used:
Test in all cases: DTP human tumour cell line panel, 48 h; in the data active = GI50 below about 0.43 µM; inactive = the rest
[1] = test system: HS 578T breast
[2] = test system: LOX IMVI melanoma
[3] = test system: SF-268 CNS
[4] = test system: SN12C renal
[5] = test system: HCT-116 colon
[6] = test system: OVCAR-4 ovarian
[7] = test system: SK-MEL-2 melanoma
[8] = test system: NCI-H522 lung
[9] = test system: OVCAR-5 ovarian
[10] = test system: A498 renal
[11] = test system: NCI-H226 lung
[12] = test system: EKVX NSCLC
[13] = test system: CCRF-CEM leukemia
[14] = test system: IGROV1 ovarian
[15] = test system: SR leukemia
[16] = test system: RXF 393 renal
[17] = test system: DU-145 prostate
[18] = test system: SF-295 CNS
[19] = test system: 786-0 renal
[20] = test system: HOP-62 NSCLC
[21] = test system: HCC-2998 colon
[22] = test system: SW-620 colon
[23] = test system: UACC-257 melanoma
[24] = test system: HCT-15 colon
[25] = test system: HOP-92 NSCLC
[26] = test system: U251 CNS
[27] = test system: SK-MEL-5 melanoma
[28] = test system: MOLT-4 leukemia
[29] = test system: NCI/ADR-RES ovarian
[30] = test system: MALME-3M melanoma
[31] = test system: SNB-19 CNS
[32] = test system: ACHN renal
[33] = test system: A549 NSCLC
[34] = test system: MDA-MB-231 breast
[35] = test system: COLO 205 colon
[36] = test system: TK-10 renal
[37] = test system: OVCAR-3 ovarian
[38] = test system: MCF7 breast
[39] = test system: UACC-62 melanoma
[40] = test system: OVCAR-8 ovarian
[41] = test system: PC-3 prostate
[42] = test system: HL-60(TB) leukemia
[43] = test system: K-562 leukemia
[44] = test system: NCI-H23 lung
[45] = test system: SK-MEL-28 melanoma
[46] = test system: CAKI-1 renal
[47] = test system: MDA-MB-435
[48] = test system: UO-31 renal
[49] = test system: HT29 colon
[50] = test system: SF-539 CNS
[51] = test system: M14 melanoma
[52] = test system: NCI-H460 lung
[53] = test system: RPMI-8226 leukemia
[54] = test system: KM12 colon
[55] = test system: BT-549 breast
[56] = test system: SK-OV-3 ovarian
[57] = test system: SNB-75 CNS

CCOC(=O)CCC(NC(=O)Cc1ccc(Oc2nc3ccccc3nc2-c2cccs2)cc1)C(=O)OCC (stereo not drawn)
37.2 µM: TGI [31]
72.7 µM: TGI [48]
62.8 µM: TGI [33]
14.2 µM: TGI [40]
29.2 µM: TGI [37]
94 µM: TGI [6]
15.3 µM: TGI [19]
86.2 µM: TGI [11]
11.8 µM: TGI [20]
12.6 µM: TGI [3]
47.7 µM: TGI [25]
87.1 µM: TGI [26]
18.3 µM: TGI [32]
> 100 µM: TGI [2] | TGI [4] | TGI [5] | TGI [7] | TGI [8] | TGI [9] | TGI [12] | TGI [13] | TGI [14] | TGI [15] | TGI [17] | TGI [18] | TGI [21] | TGI [22] | TGI [23] | TGI [24] | TGI [27] | TGI [28] | TGI [29] | TGI [30] | TGI [35] | TGI [38] | TGI [39] | TGI [41] | TGI [42] | TGI [43] | TGI [44] | TGI [45] | TGI [46] | TGI [47] | TGI [49] | TGI [51] | TGI [52] | TGI [53] | TGI [54] | TGI [55]
81.1 µM: TGI [1]
84.1 µM: TGI [10]
29.1 µM: TGI [34]
69.2 µM: TGI [36]
27.5 µM: TGI [16]
26.3 µM: TGI [50]

COc1cc(-n2cc(-c3ccc(Cl)cc3)[nH]c2=O)cc(OC)c1OC
42.8 µM: TGI [36]
71.8 µM: TGI [55]
44.8 µM: TGI [10]
64.4 µM: TGI [48]
78.8 µM: TGI [20]
54 µM: TGI [8]
50.5 µM: TGI [57]
55.4 µM: TGI [34]
62.9 µM: TGI [6]
93 µM: TGI [56]
inactive: GI50 [1] 76.6 µM | GI50 [2] 59.9 µM | GI50 [3] 30.4 µM | GI50 [4] 37.7 µM | GI50 [5] 35.4 µM | GI50 [6] 25.9 µM | GI50 [7] 72.6 µM | GI50 [8] 19.9 µM | GI50 [9] 22.7 µM | GI50 [10] 19.8 µM | GI50 [11] 33.2 µM | GI50 [12] 34.1 µM | GI50 [14] 35.5 µM | GI50 [15] > 100 µM | GI50 [17] 57.4 µM | GI50 [18] 30.9 µM | GI50 [19] 15.2 µM | GI50 [20] 30.8 µM | GI50 [21] 47.4 µM | GI50 [22] > 100 µM | GI50 [23] 46.8 µM | GI50 [24] > 100 µM | GI50 [26] 20.9 µM | GI50 [27] 31.1 µM | GI50 [28] > 100 µM | GI50 [29] 23.1 µM | GI50 [30] 32 µM | GI50 [31] 32.6 µM | GI50 [32] 21.6 µM | GI50 [33] 34.6 µM | GI50 [34] 23.1 µM | GI50 [35] > 100 µM | GI50 [36] 18.5 µM | GI50 [37] 21 µM | GI50 [38] 35 µM | GI50 [39] 23 µM | GI50 [40] 26.5 µM | GI50 [56] 35.8 µM | GI50 [41] 16.4 µM | GI50 [42] > 100 µM | GI50 [43] > 100 µM | GI50 [44] 49.5 µM | GI50 [45] > 100 µM | GI50 [46] 16.2 µM | GI50 [47] 88.4 µM | GI50 [48] 22.5 µM | GI50 [49] 43.8 µM | GI50 [50] 23.8 µM | GI50 [51] 94.1 µM | GI50 [52] 39.6 µM | GI50 [53] 12.6 µM | GI50 [54] 41.3 µM | GI50 [55] 27.1 µM | GI50 [57] 26.2 µM
46 µM: TGI [32]
63.6 µM: TGI [29]
54.1 µM: TGI [9]
64.1 µM: TGI [39]
35.3 µM: TGI [19]
83.3 µM: TGI [11]
51.2 µM: TGI [41]
68.9 µM: TGI [40]
> 100 µM: TGI [1] | TGI [2] | TGI [4] | TGI [5] | TGI [7] | TGI [12] | TGI [14] | TGI [15] | TGI [17] | TGI [18] | TGI [21] | TGI [22] | TGI [23] | TGI [24] | TGI [27] | TGI [28] | TGI [31] | TGI [33] | TGI [35] | TGI [38] | TGI [42] | TGI [43] | TGI [44] | TGI [45] | TGI [47] | TGI [49] | TGI [51] | TGI [52] | TGI [53] | TGI [54]
49.2 µM: TGI [50]
35.6 µM: TGI [46]
45.1 µM: TGI [26]
77.4 µM: TGI [30]
88.6 µM: TGI [3]
50.1 µM: TGI [37]
